Measurements as given in patent US5747239A, “Synthetic peptides specific for the detection of antibodies to HCV, diagnosis of HCV infection and preventions thereof as vaccines” (United Biomedical, Inc., priority 1994, dated 1998).

Experiments:
Assay type in all cases: binding, human
antibodies to HCV [1] = assay: NS-5 peptide ELISA, group of 5 HCV positive sera
Protocol: Wells of 96-well plates were coated for 1 hour at 37° C. with each of the three peptides derived from the NS-5 region of HCV (designated as pep4, pep5 and pep6).

antibodies to HCV [2] = assay: Peptide ELISA for relative immunoreactivity, 8 member HCV serum panel (Panel I); set-up: relative immunoreactivity value: concentration or dose not given beside the values
Method in brief: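 Wells coated with peptides at 5 ug/mL in 10 mM NaHCO3 pH 9.5, gelatin-blocked, then probed with eight HCV antibody-positive sera at 1:20 for 15 min at 37° C. HRP goat anti-human IgG (1:1800, 15 min), OPD/H2O2 substrate, acid-stopped, A492 read; immunoreactivity expressed relative to peptide IIH.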

antibodies to HCV [3] = assay: EIA of pep3 after different extraction conditions following HF cleavage; conditions: for % Decrease: Pep3' versus Pep3
Source text: Peptide extraction conditions after HF cleavage were altered to test for their effect on peptide immunopotency after HF cleavage. Pep3 (or 279A) was extracted with acetic acid at pH 2, whereas pep3' was extracted with ammonium bicarbonate at pH 8.

[4] = test system: antibodies to peptide VIIIE; assay: Presence of antibodies to peptide VIIIE in sera

Molecule: DPSHITAEAAGRRLARGSPPSVASSSASQLSAPSLKATCTANHDSP [Pep4]
- % Relative Immunoreactivity (antibodies to HCV [1]; NS-5 peptides, 5 HCV positive sera, Pep5 = 100): 28.6%
- EIA reading per sample (antibodies to HCV [1]; Sample No. 1): 0.468
- EIA reading per sample (antibodies to HCV [1]; Sample No. 2): 0.659
- EIA reading per sample (antibodies to HCV [1]; Sample No. 3): 0.675
- EIA reading per sample (antibodies to HCV [1]; Sample No. 4): 0.063
- EIA reading per sample (antibodies to HCV [1]; Sample No. 5): 0.144
- % IP (antibodies to HCV [2]; NS-5 peptides (Table 12), Panel I, pep11 as a standard): 17.1%

Molecule: Pep3': pep3 (279A) sequence extracted with ammonium bicarbonate at pH 8 after HF cleavage (GCSGGAYDIIICDECHSTDATSILGIGTVLDQAETAG)
- A492 nm (mA) by EIA (antibodies to HCV [3]; NRC: Negative Control): 1 mA
- % Decrease (antibodies to HCV [3]; SRC): 77.6%
- % Decrease (antibodies to HCV [3]; WRC): 89.6%
- % Decrease (antibodies to HCV [3]; sample #1): 78.8%
- % Decrease (antibodies to HCV [3]; sample #2): 90.0%
- % Decrease (antibodies to HCV [3]; sample #3): 91.5%
- % Decrease (antibodies to HCV [3]; sample #4): 99.3%
- % Decrease (antibodies to HCV [3]; sample #5): 88.0%
- share of the panel reactive (antibodies to HCV [2]; Panel I): half of the panel is reactive
- relative immunoreactivity value (antibodies to HCV [2]; Panel I, compared with peptide VIIIE): 23.9%
- absorbances of some additional reactive samples (antibodies to HCV [2]; additional reactive samples): > 2000 mA

B1: STIPKPQRKTKRNTNRRPQDVKFPGGGQIVGGVYLLPRRGPRLGVRATRKTSERSQPRGRR (peptide)
peptide: STIPKPQRKTKRNTNRRPQDVKFPGGGQIVGGVYLLPRRGPRLGVRATRKTSERSQPRGRR
- A492 nm (antibodies to HCV [2]; Panel I serum No. 1, peptide coated at 5 ug/mL, serum 1:20): 2.745
- A492 nm (antibodies to HCV [2]; Panel I serum No. 2): 2.208
- A492 nm (antibodies to HCV [2]; Panel I serum No. 3): 2.468
- A492 nm (antibodies to HCV [2]; Panel I serum No. 4): 3.032
- A492 nm (antibodies to HCV [2]; Panel I serum No. 5): 0.054
- A492 nm (antibodies to HCV [2]; Panel I serum No. 6): 2.108
- A492 nm (antibodies to HCV [2]; Panel I serum No. 7): 0.730
- A492 nm (antibodies to HCV [2]; Panel I serum No. 8): 3.006
- samples of the HCV serum panel that reacted (antibodies to HCV [2]; Panel I, 8 samples): 7 out of 8
- % Relative Immunoreactivity (antibodies to HCV [2]; Panel I, peptide IIH as the reference): 98%
- % Relative Immunoreactivity (antibodies to HCV [2]; capsid peptides, Panel I, relative to VIIIE, coated at 5, 1 and 0.2 μg/mL): 100.0%
- A492 nm Total (antibodies to HCV [2]; sum over Panel I No. 1 to 8): 16.351
- antibodies to the peptide present in ([4]; HBsAg positive individuals): 15-20%
- antibodies to the peptide present in ([4]; normal controls): 1-2%
